In data set [1] the test system is IL-17A. Put plainly: Cytokine assay: IL-17A production by human PBMC stimulated with PHA. The settings on record: IC50 class, read-out: IL-17A Inhib. The class given is cell-based. In outline: (§1)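 Healthy-donor PBMC, isolated on Histopaque-1077, were seeded at 1×10^5 cells/well in RPMI1640 with 10% dialyzed heat-inactivated FCS, activated with 2 μg/ml PHA and incubated with compound for 48 hours. Supernatant cytokine was measured by Luminex BioPlex or ELISA. IC50 came from semilogarithmic titration; screening used 10, 1, 0.1 and 0.01 μM.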

Data set [2] deals with IL-17F. Put plainly: Cytokine assay: IL-17F production by human PBMC stimulated with PHA. The data set is classed as cell-based. The settings on record: IC50 class, read-out: IL-17F Inhib. In short, it runs like this: as §1
The subject of data set [3] is INF-γ. Description: Cytokine assay: INF-γ production by human PBMC stimulated with PHA. The class given is cell-based. The settings on record: IC50 class, read-out: IFN-gamma Inhib. In outline: as §1
The nature of data set [4]: Aqueous solubility in 50 mM phosphate buffer (HPLC/DAD). The data set is classed as physicochemical. The settings on record: aqueous solubility class; for solubility at 24 h: 50 mM phosphate buffer, 23 °C, pH 7.4, aqueous buffer, kinetic from dmso stock, read-out: aq. solub. As for the experimental part: To achieve this, the samples (final volume 500 μl, 200 μM compound concentration) were incubated for 24 hours at 23° C. under continuous shaking at 1400 rpm (Thermomixer, Eppendorf) in aqueous phosphate buffers (pH 4.0, 6.0, 7.4 and 9.0) with a final DMSO concentration of 1%. To separate the undissolved compound from the solution, the samples were centrifuged (30 min 18000 g at 23° C.). Supernatants were measured via HPLC equipped with a UV detector and concentrations were calculated according to signals of a standard curve. The standard curve was prepared by diluting a stock solution of each compound (c=0.1 mg/ml; received by adding 10 μl of 20 mM compound in DMSO to 914 μl MeCN) in a certain amount of MeCN to cover a range of 0.1 to 200 μg/ml.

Data set [5] in a line: Microsomal stability: incubation with human liver microsomes, residual parent compound by HPLC-MS/MS. The following applies: human liver microsomes 0.5 mg/ml, compound 1 μM, pH 7.4, 37° C., up to 60 min; for half-life at 1 μM: read-out: t1/2 hLM. The data set is classed as in vitro ADME. In short, it runs like this:
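Compound at 1 μM final with 0.5 mg/ml pooled human liver microsomes and NADPH regenerating system, 0.1 M potassium phosphate pH 7.4, 0.4% DMSO, 37° C, sampled up to 60 min. Residual parent measured by HPLC-MS/MS; half-life and clearance from slope of remaining % of T0.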
For orientation: Liver microsomes are vesicles of endoplasmic reticulum, rich in cytochrome P450 enzymes.

Values after ≈ are worked out from the molar mass of the structure shown. Read-outs that look alike come from different tables or passages of the source.

`COC(=O)c1c(-c2c(F)cccc2Cl)noc1-c1cnn(CCC(C)(C)O)c1C` [Example 20, methyl 3-(2-chloro-6-fluorophenyl)-5-[1-(3-hydroxy-3-methylbutyl)-5-methyl-1H-pyrazol-4-yl]-1,2-oxazole-4-carboxylate]: the IC50 in data set [1] (Homo sapiens, PBMC) was less than 0.05 µM; in data set [2] (Homo sapiens, PBMC) it was less than 0.05 µM; in data set [3] (Homo sapiens, PBMC), less than 0.05 µM. Further, in data set [4], the solubility at 24 h is greater than 10 µM. The half-life at 1 μM in data set [5] is greater than 100 min.

For `COC(=O)c1c(-c2c(F)cccc2Cl)noc1-c1cnn([C@H]2C[C@](C)(O)C2)c1C(F)(F)F` [Example 26, methyl 3-(2-chloro-6-fluorophenyl)-5-(1-(3-hydroxy-3-methylcyclobutyl)-5-(trifluoromethyl)-1H-pyrazol-4-yl)isoxazole-4-carboxylate], the IC50 in data set [1], in data set [2] and in data set [3] was 0.5 to 5 µM in each case. The aq. solub. entry in data set [4] is listed as “+ (+: 1-2.99 μM)”. Besides, the half-life at 1 μM in data set [5] is 40 to 100 min.

Consider `COC(=O)c1c(-c2c(F)cccc2Cl)noc1-c1cnn([C@H]2C[C@](C)(O)C2)c1C(F)(F)F` [Example 27, methyl 3-(2-chloro-6-fluorophenyl)-5-(1-(3-hydroxy-3-methylcyclobutyl)-5-(trifluoromethyl)-1H-pyrazol-4-yl)isoxazole-4-carboxylate], for which the IC50 in data set [1], in data set [2] and in data set [3] was less than 0.05 µM in each case. For the same compound, the aq. solub. result in data set [4] is given as “++ (++: 3-9.99 μM)”. The “t1/2 hLM” value in data set [5] is reported as “++ (++: 40-100 min)”.

`CC(=O)c1c(-c2c(F)cccc2Cl)noc1-c1cnn(C[C@@H](C)O)c1C(F)(F)F` [Example 35, 1-[3-(2-chloro-6-fluorophenyl)-5-{1-[(2R)-2-hydroxypropyl]-5-(trifluoromethyl)-1H-pyrazol-4-yl}-1,2-oxazol-4-yl]ethan-1-one]: the IC50 in data set [1] (Homo sapiens, PBMC) was in the range of 0.05 to 0.5 µM; in data set [2] (Homo sapiens, PBMC), 0.05 to 0.5 µM; in data set [3] (Homo sapiens, PBMC) it was 0.05 to 0.5 µM. In data set [4], the solubility at 24 h was greater than 10 µM. Besides, the half-life at 1 μM in data set [5] lay in the range of 40 to 100 min.

`C[C@@H](O)Cn1ncc(-c2onc(-c3c(F)cccc3Cl)c2C(=O)NC2CCCC2)c1C(F)(F)F` [Example 44, 3-(2-chloro-6-fluorophenyl)-N-cyclopentyl-5-{1-[1-(2R)-2-hydroxypropyl]-5-(trifluoromethyl)-1H-pyrazol-4-yl}-1,2-oxazole-4-carboxamide]: the IC50 in data set [1] (Homo sapiens, PBMC) lay within 0.05 to 0.5 µM; in data set [2] (Homo sapiens, PBMC), 0.5 to 5 µM; in data set [3] (Homo sapiens, PBMC), 0.05 to 0.5 µM. The solubility at 24 h in data set [4] was greater than 10 µM. In addition, the half-life at 1 μM in data set [5] was 2 to 9.99 min.

On to `C[C@]1(O)C[C@H](n2ncc(-c3onc(-c4ccccc4Cl)c3C(=O)OC3CC3)c2C(F)(F)F)C1` [Example 49, cyclopropyl 3-(2-chlorophenyl)-5-(1-(3-hydroxy-3-methylcyclobutyl)-5-(trifluoromethyl)-1H-pyrazol-4-yl)isoxazole-4-carboxylate], for which the IC50 in data set [1], in data set [2] and in data set [3] was less than 0.05 µM in each case. Also, the solubility at 24 h in data set [4] lay in the range of 1 to 2.99 µM (≈ 0.482 to 1.44 µg/mL). Further, the half-life at 1 μM in data set [5] is greater than 100 min.

`CC(C)(O)Cn1ncc(-c2onc(-c3c(F)cccc3Cl)c2C(=O)OC2CCC2)c1C(F)(F)F` [Example 56, cyclobutyl 3-(2-chloro-6-fluorophenyl)-5-[1-(2-hydroxy-2-methylpropyl)-5-(trifluoromethyl)-1H-pyrazol-4-yl]-1,2-oxazole-4-carboxylate]: the IC50 in data set [1] (Homo sapiens, PBMC) is less than 0.05 µM; in data set [2] (Homo sapiens, PBMC), less than 0.05 µM; in data set [3] (Homo sapiens, PBMC), less than 0.05 µM. Besides, in data set [4], the solubility at 24 h was in the range of 1 to 2.99 µM (≈ 0.502 to 1.5 µg/mL). In addition, the half-life at 1 μM in data set [5] lay within 2 to 9.99 min.

Regarding `C[C@H](O)Cn1ncc(-c2onc(-c3c(F)cccc3Cl)c2C(=O)OC2CC2)c1C(F)(F)F` [Example 59, cyclopropyl 3-(2-chloro-6-fluorophenyl)-5-{1-[(2S)-2-hydroxypropyl]-5-(trifluoromethyl)-1H-pyrazol-4-yl}-1,2-oxazole-4-carboxylate], the IC50 in data set [1] (Homo sapiens, PBMC) is less than 0.05 µM; in data set [2] (Homo sapiens, PBMC) it was less than 0.05 µM; in data set [3] (Homo sapiens, PBMC), less than 0.05 µM. In data set [4], the solubility at 24 h was greater than 10 µM. In data set [5], the half-life at 1 μM lay in the range of 10 to 40 min.

`C[C@H](O)Cn1ncc(-c2onc(-c3c(F)cccc3Cl)c2C(=O)OC2COC2)c1C(F)(F)F` [Example 60, oxetan-3-yl 3-(2-chloro-6-fluorophenyl)-5-{1-[(2S)-2-hydroxypropyl]-5-(trifluoromethyl)-1H-pyrazol-4-yl}-1,2-oxazole-4-carboxylate]: the IC50 in data set [1] (Homo sapiens, PBMC) lay in the range of 0.05 to 0.5 µM; in data set [2] (Homo sapiens, PBMC), 0.05 to 0.5 µM; in data set [3] (Homo sapiens, PBMC), 0.05 to 0.5 µM. The solubility at 24 h in data set [4] was greater than 10 µM. The half-life at 1 μM in data set [5] fell in the range of 10 to 40 min.

For the compound `COCc1c(-c2c(F)cccc2Cl)noc1-c1cnn(CCC(C)(C)O)c1C(F)(F)F` [Example 67, 4-{4-[3-(2-chloro-6-fluorophenyl)-4-(methoxymethyl)-1,2-oxazol-5-yl]-5-(trifluoromethyl)-1H-pyrazol-1-yl}-2-methylbutan-2-ol], the IC50 was 0.05 to 0.5 µM in data set [1] (Homo sapiens, PBMC); 0.05 to 0.5 µM in data set [2] (Homo sapiens, PBMC); less than 0.05 µM in data set [3] (Homo sapiens, PBMC). In addition, the solubility at 24 h in data set [4] was greater than 10 µM. The half-life at 1 μM in data set [5] is greater than 100 min.

Take `CCOCc1c(-c2c(F)cccc2Cl)noc1-c1cnn(C[C@@H](C)O)c1C(F)(F)F` [Example 76, (2R)-1-{4-[3-(2-chloro-6-fluorophenyl)-4-(ethoxymethyl)-1,2-oxazol-5-yl]-5-(trifluoromethyl)-1H-pyrazol-1-yl}propan-2-ol]: the IC50 in data set [1] (Homo sapiens, PBMC) is 0.05 to 0.5 µM; in data set [2] (Homo sapiens, PBMC), 0.05 to 0.5 µM; in data set [3] (Homo sapiens, PBMC), less than 0.05 µM. Further, the solubility at 24 h in data set [4] is greater than 10 µM. Besides, the half-life at 1 μM in data set [5] is 10 to 40 min.

Consider `CC(C)(O)CCn1ncc(-c2onc(-c3c(F)cccc3Cl)c2COC2CC2)c1C(F)(F)F` [Example 77, 4-{4-[3-(2-chloro-6-fluorophenyl)-4-(cyclopropoxymethyl)-1,2-oxazol-5-yl]-5-(trifluoromethyl)-1H-pyrazol-1-yl}-2-methylbutan-2-ol], for which the IC50 in data set [1] (Homo sapiens, PBMC) is less than 0.05 µM; in data set [2] (Homo sapiens, PBMC), less than 0.05 µM; in data set [3] (Homo sapiens, PBMC), less than 0.05 µM. The solubility at 24 h in data set [4] lay within 3 to 9.99 µM (≈ 1.46 to 4.87 µg/mL). Moreover, the half-life at 1 μM in data set [5] was greater than 100 min.

Consider `CC(C)(O)CCn1ncc(-c2onc(-c3ccccc3Cl)c2COC2CC2)c1C(F)(F)F` [Example 78, 4-{4-[3-(2-chlorophenyl)-4-(cyclopropoxymethyl)-1,2-oxazol-5-yl]-5-(trifluoromethyl)-1H-pyrazol-1-yl}-2-methylbutan-2-ol], for which the IC50 in data set [1] (Homo sapiens, PBMC) is 0.05 to 0.5 µM; in data set [2] (Homo sapiens, PBMC), less than 0.05 µM; in data set [3] (Homo sapiens, PBMC) it was less than 0.05 µM. Besides, the solubility at 24 h in data set [4] was greater than 10 µM. For the same compound, in data set [5], the half-life at 1 μM is 40 to 100 min.

Consider `Cc1c(-c2onc(-c3c(F)cccc3Cl)c2COC2CC2)cnn1CCC(C)(C)O` [Example 82, 4-{4-[3-(2-chloro-6-fluorophenyl)-4-(cyclopropoxymethyl)-1,2-oxazol-5-yl]-5-methyl-1H-pyrazol-1-yl}-2-methylbutan-2-ol], for which the IC50 in data set [1] (Homo sapiens, PBMC) was less than 0.05 µM; in data set [2] (Homo sapiens, PBMC), less than 0.05 µM; in data set [3] (Homo sapiens, PBMC) it was less than 0.05 µM. For the same compound, the solubility at 24 h in data set [4] was greater than 10 µM. Also, the half-life at 1 μM in data set [5] was greater than 100 min.

On to `Cc1c(-c2onc(-c3c(F)cccc3Cl)c2COC2CC2)cnn1[C@H]1C[C@@](C)(O)C1` [Example 83, 3-{4-[3-(2-chloro-6-fluorophenyl)-4-(cyclopropoxymethyl)-1,2-oxazol-5-yl]-5-methyl-1H-pyrazol-1-yl}-1-methylcyclobutan-1-ol], for which the IC50 in data set [1] (Homo sapiens, PBMC) was less than 0.05 µM; in data set [2] (Homo sapiens, PBMC), less than 0.05 µM; in data set [3] (Homo sapiens, PBMC), less than 0.05 µM. In addition, the solubility at 24 h in data set [4] was 1 to 2.99 µM (≈ 0.432 to 1.29 µg/mL). Besides, in data set [5], the half-life at 1 μM was 40 to 100 min.

As to `C[C@]1(O)C[C@@H](n2ncc(-c3onc(-c4ccccc4Cl)c3COC3CC3)c2C(F)(F)F)C1` [Example 87, 3-{4-[3-(2-chlorophenyl)-4-(cyclopropoxymethyl)-1,2-oxazol-5-yl]-5-(trifluoromethyl)-1H-pyrazol-1-yl}-1-methylcyclobutan-1-ol], the IC50 in data set [1] (Homo sapiens, PBMC) is 0.05 to 0.5 µM; in data set [2] (Homo sapiens, PBMC), less than 0.05 µM; in data set [3] (Homo sapiens, PBMC), less than 0.05 µM. Also, in data set [4], the solubility at 24 h was greater than 10 µM. Moreover, the half-life at 1 μM in data set [5] is greater than 100 min.

Take `CC(C)OCc1c(-c2c(F)cccc2Cl)noc1-c1cnn(C[C@@H](C)O)c1C(F)(F)F` [Example 89, (2R)-1-{4-[3-(2-chloro-6-fluorophenyl)-4-[(propan-2-yloxy)methyl]-1,2-oxazol-5-yl]-5-(trifluoromethyl)-1H-pyrazol-1-yl}propan-2-ol]: the IC50 in data set [1] (Homo sapiens, PBMC) is less than 0.05 µM; in data set [2] (Homo sapiens, PBMC), less than 0.05 µM; in data set [3] (Homo sapiens, PBMC), less than 0.05 µM. Also, the solubility at 24 h in data set [4] is greater than 10 µM. The half-life at 1 μM in data set [5] was 2 to 9.99 min.

The values above are taken from patent publication US11292788B2, “IL-17 and IFN-gamma inhibition for the treatment of autoimmune diseases and chronic inflammation” (Immunic AG, priority 2017, dated 2022).
